Here are results for two compounds from patent publication US8895565B2, “Heterocyclic compound and use of the same” (priority 2009, dated 2014).

The IC50 is the concentration that gives 50% inhibition. A higher IC50 goes with a need for much substance. As a reminder, the ED50 is the midpoint of the dose-response relation. High values mean weaker potency, low ones greater potency.

The structures appear in SMILES notation. Where only a bound is given, the exact number is not on record here.

The target in test [1] is T1, EGF receptor tyrosine kinase (Homo sapiens, UniProt P00533).
T1 construct: Receptor tyrosine kinase was obtained from A-431 cells (derived from human vulval carcinoma) in partially purified form; endogenous in cells; host or cells: A-431 cells (human vulval carcinoma); solubilised membrane preparation
T1 sequence (P00533 25-1210): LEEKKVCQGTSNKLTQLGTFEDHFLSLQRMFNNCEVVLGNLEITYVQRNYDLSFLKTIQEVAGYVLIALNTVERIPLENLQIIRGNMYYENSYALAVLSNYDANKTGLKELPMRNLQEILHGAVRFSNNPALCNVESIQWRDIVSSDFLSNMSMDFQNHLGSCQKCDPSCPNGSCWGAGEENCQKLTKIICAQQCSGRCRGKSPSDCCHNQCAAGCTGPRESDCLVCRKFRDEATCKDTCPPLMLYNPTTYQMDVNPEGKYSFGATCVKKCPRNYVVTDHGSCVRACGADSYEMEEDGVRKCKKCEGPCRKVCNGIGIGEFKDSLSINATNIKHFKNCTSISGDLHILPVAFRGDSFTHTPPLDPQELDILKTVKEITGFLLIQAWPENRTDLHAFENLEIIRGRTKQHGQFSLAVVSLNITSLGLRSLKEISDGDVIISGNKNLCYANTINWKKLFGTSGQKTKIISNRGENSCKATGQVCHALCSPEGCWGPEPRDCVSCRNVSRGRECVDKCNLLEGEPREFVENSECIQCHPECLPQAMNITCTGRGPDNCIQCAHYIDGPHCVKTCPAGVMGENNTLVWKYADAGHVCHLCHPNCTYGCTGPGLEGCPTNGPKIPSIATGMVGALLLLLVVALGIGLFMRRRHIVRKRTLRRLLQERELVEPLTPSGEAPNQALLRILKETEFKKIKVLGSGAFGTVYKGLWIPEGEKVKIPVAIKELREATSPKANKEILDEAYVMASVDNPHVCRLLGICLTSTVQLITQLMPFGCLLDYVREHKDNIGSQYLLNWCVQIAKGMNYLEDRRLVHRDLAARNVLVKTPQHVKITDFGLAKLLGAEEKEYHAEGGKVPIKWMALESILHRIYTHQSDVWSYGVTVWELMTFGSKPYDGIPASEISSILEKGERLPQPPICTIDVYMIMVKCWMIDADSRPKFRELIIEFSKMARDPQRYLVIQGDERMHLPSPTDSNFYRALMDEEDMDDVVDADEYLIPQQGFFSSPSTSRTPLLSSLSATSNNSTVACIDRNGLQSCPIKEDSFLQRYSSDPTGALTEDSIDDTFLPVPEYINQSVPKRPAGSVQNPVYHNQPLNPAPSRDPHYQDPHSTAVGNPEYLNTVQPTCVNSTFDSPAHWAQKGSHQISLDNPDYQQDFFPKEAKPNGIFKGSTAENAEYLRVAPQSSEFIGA
T1 sequence (P01133 971-1023 partner limits assumed): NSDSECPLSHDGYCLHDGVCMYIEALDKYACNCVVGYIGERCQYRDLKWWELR
The experiment in a line: Test (a): in vitro inhibition of the enzyme EGF receptor tyrosine kinase. The class given is biochemical. Conditions: receptor tyrosine kinase partially purified from A-431 cells, EGF-stimulated. How it is done: (a) In vitro assay for measuring the effect of a test compound in inhibiting the enzyme EGF receptor tyrosine kinase
Receptor tyrosine kinase was obtained from A-431 cells (derived from human vulval carcinoma) in partially purified form by a method relevant to a method shown in Carpenter et al., J. Biol. Chem., 1979, 254, 4884, Cohen et. al., J. Biol. Chem., 1982, 257, 1523, and Braun et al., J. Biol. Chem., 1984, 259, 2051.
A-431 cells were grown in Dulbecco's modified Eagle's medium (DMEM) containing 5% fetal calf serum (FCS) up to a confluent state. The resultant cells were homogenized in a hypotonic borate/EDTA buffer (pH 10.1). The homogenate was centrifuged at 400×g for 10 minutes at 0° C. to 4° C. […]
The test compound/EGF mixture solution (5 μl) was added to the test enzyme solution (10 μl) and the mixture was incubated at 0° C. to 4° C. for 30 minutes. […] Radioactivity present in the paper-filter was measured by a liquid scintillation counter (Sequence A). […] Receptor tyrosine kinase inhibition was indicated by inhibition ratio (%), which was calculated in accordance with the following equation, provided that the measurement results of sequence A is expressed by SA, the measurement results of sequence B by SB, and the measurement results of sequence C by SC. […] Subsequently, within a concentration range of a test compound providing IC50 value, the extent of inhibition was determined.

In test [2] the test system is xenografts of the human vulval epidermoid carcinoma cell line A-431. The experiment in a line: Test (d): in vivo inhibition of growth of A-431 xenografts in athymic nude mice. To be noted: tumor volume vs untreated control, dose of 50 mg/day/weight (kg), oral, once per day. Here is the method: (d) In vivo assay on a group of athymic nude mice (strain ONU: Alpk) for determining the effect of a test compound (usually, ball-milled, prepared as a suspension in 0.5% polysorbate, and orally administered) in inhibiting the growth of xenografts of the human vulval epidermoid carcinoma cell line A-431
A-431 cells were maintained in a cultured product in DMEM having 5% FCS and 2 mM glutamine supplemented thereto. Freshly cultured cells were harvested by trypsinization and subcutaneously injected into both flanks of each of many donor nude mice (10000000 cells/0.1 ml/mouse). When a sufficient amount of tumorigen was obtained (about 9 to 14 days later), fragments of tumor tissue were transplanted in the flanks of recipient nude mice (test day 0). […] To these groups of mice, administration of the test compound was commenced. The test compound was administered once per day continuously for 13 days in total (including test day 7 to 19). In some tests, administration of the test compound was continued beyond test day 19, for example, to test day 26. In each case, the animals were killed on the following day and final tumor volume was calculated from the measurement values of the length and width of the tumors. The suppression percentage was calculated from the resultant tumor volume based on the control (untreated).

The subject of test [3] is liver cell growth stimulation induced by growth factor TGFα. The experiment in a line: Test (c): in vivo inhibition of liver cell growth stimulation induced by TGFα (BrdU uptake). To be noted: Rattus norvegicus; male rats, oral, inhibition of liver cell proliferation by BrdU uptake, approximate ED50. How it is done:
(c) In vivo assay for measuring the effect of a test compound (usually, ball-milled, prepared as a suspension in 0.5% polysorbate, and orally administered) in inhibiting liver cell growth stimulation induced by administration of growth factor TGFα (subcutaneous administration of 400 μg/kg, i.e., twice a usual dose, 3 hours and 7 hours respectively after administration of the test compound) in a group of male rats
In a control group of rats, administration of TGFα causes liver cell growth stimulation as large as on average 5 times.
Cell growth of control animals and test animals was measured in accordance with the following manner:
On the morning of the day after a test compound (or 0.5% polysorbate in a control group) was administered, bromodeoxyuridine (BrdU; intraperitoneally 100 mg/kg) was administered to animals. Four hours later, the animals were killed and the livers were excised out. Slices were cut out from each liver, and BrdU uptake was measured in the same manner as in conventional immunohistological techniques described below:
To calculate an approximate ED50 value on inhibition of liver cell proliferation measured by inhibition of BrdU uptake, tests were further performed using the test compound within a predetermined dose range.

The test system of test [4] is human nasopharyngeal cancer cell line KB. The experiment in a line: Test (b): in vitro inhibition of EGF-stimulated growth of KB cells (MTT). It is filed as cell-based. To be noted: EGF 10 ng/ml. Here is the method: (b) In vitro assay for measuring the effect of a test compound in inhibiting growth of human nasopharyngeal cancer cell line KB by EGF-stimulation
KB cells were seeded into wells at a density of 1×10^4 to 1.5×10^4 cells per well and grown in DMEM supplemented with 5% FCS (charcoal-stripped) for 24 hours. After incubation for 3 days, cell growth was determined based on the extent of blue color occurrence, which was produced by metabolizing a MTT tetrazolium dye. Subsequently, cell growth was determined in the presence of EGF (10 ng/ml) or in the presence of EGF (10 ng/ml) and a test compound within a predetermined concentration range. Then, an IC50 value could be calculated.

On to `COC(=O)c1ccc(CNc2ncnc(C)c2C#Cc2ccc(C(F)(F)F)cc2)o1` [Compound No. 2, Methyl 5-(6-methyl-5-{[4-(trifluoromethyl)phenyl]ethynyl}pyrimidin-4-ylaminomethyl)-2-furancarboxylate], for which the figures for the IC50 in test [1] and in test [4] were 220 nM and 700 nM, respectively. Also, the “suppression rate in Test (d)” value in test [2] came to 69%. The compound further had an ED50 in test [3] of less than 11.8 mg/kg.
In the same order, the values of `CCOC(=O)c1ccc(CNc2ncnc(C)c2C#Cc2ccc(C(F)(F)F)cc2)o1` [Compound No. 1, Ethyl 5-{6-methyl-5-{[4-(trifluoromethyl)phenyl]ethynyl}pyrimidin-4-ylaminomethyl}-2-furancarboxylate] are 240 nM, 800 nM, 68% and less than 12.1 mg/kg.
